Read-outs that look alike come from different tables or passages of the source.
System: patients with locally advanced or metastatic solid tumors
Description: This was a Phase Ib, multicenter, open-label, dose-finding clinical trial (NCT02610075). […] Three types of treatment schedules were investigated: cohorts bid 1, bid 2, qd 1.1, qd 2.1 and qd 3.1 received bid or qd treatment on a 5/9 schedule (5 days on treatment, followed by 9 days off) on a 14-day cycle. Cohorts qd 1.2, qd 2.2, and qd 3.2 received treatment on a 5/2 schedule (5 days on followed by 2 days off for 2 of 3 weeks) in a 21-day cycle. Cohorts qd 2.3 and qd 3.3 received treatment on a weekly 5/2 schedule in a 21-day cycle (Table 1). The highest dose level(s) at which less than one-third of evaluable patients (none of 3 patients or 1 of 6 patients) experienced a dose-limiting toxicity (DLT) was declared the MTD.
The per protocol analysis set was defined as a subset of the full analysis set, excluding subjects having an important protocol deviation, to be used for analyses of efficacy endpoints if appropriate.

[1] = qd 2.3: 250 mg qd 5/2 weekly (n=10)

C=CCn1c(=O)c2cnc(Nc3ccc(N4CCN(C)CC4)cc3)nc2n1-c1cccc(C(C)(C)O)n1 [adavosertib, Adavosertib]
Thrombocytopenia (treatment-related AE) (qd 2.1: 250 mg qd 5/9 (n=4)): 0 n (%) | Urinary tract infection (treatment-emergent AE) (qd 2.1: 250 mg qd 5/9 (n=4)): 0 n (%) | Vomiting (treatment-emergent AE) (qd 2.1: 250 mg qd 5/9 (n=4)): 0 n (%) | Vomiting (treatment-related AE) (qd 2.1: 250 mg qd 5/9 (n=4)): 0 n (%) | Abdominal pain (treatment-emergent AE) (qd 2.2: 250 mg qd 5/2 (n=3)): 0 n (%) | Abdominal pain (treatment-related AE) (qd 2.2: 250 mg qd 5/2 (n=3)): 0 n (%) | Alanine aminotransferase increased (treatment-emergent AE) (qd 2.2: 250 mg qd 5/2 (n=3)): 1 (33.3) n (%) | Anemia (treatment-emergent AE) (qd 2.2: 250 mg qd 5/2 (n=3)): 1 (33.3) n (%) | Anemia (treatment-related AE) (qd 2.2: 250 mg qd 5/2 (n=3)): 1 (33.3) n (%) | Any AE (treatment-emergent) (qd 2.2: 250 mg qd 5/2 (n=3)): 3 (100) n (%) | Any grade ≥ 3 AE (qd 2.2: 250 mg qd 5/2 (n=3)): 3 (100.0) n (%) | Any treatment-related AE (qd 2.2: 250 mg qd 5/2 (n=3)): 3 (100) n (%) | Any treatment-related grade ≥ 3 AE (qd 2.2: 250 mg qd 5/2 (n=3)): 3 (100.0) n (%) | Asthenia (treatment-emergent AE) (qd 2.2: 250 mg qd 5/2 (n=3)): 1 (33.3) n (%) | Asthenia (treatment-related AE) (qd 2.2: 250 mg qd 5/2 (n=3)): 1 (33.3) n (%) | Back pain (treatment-emergent AE) (qd 2.2: 250 mg qd 5/2 (n=3)): 1 (33.3) n (%) | Constipation (treatment-emergent AE) (qd 2.2: 250 mg qd 5/2 (n=3)): 1 (33.3) n (%) | Constipation (treatment-related AE) (qd 2.2: 250 mg qd 5/2 (n=3)): 1 (33.3) n (%) | Cough (treatment-emergent AE) (qd 2.2: 250 mg qd 5/2 (n=3)): 1 (33.3) n (%) | Decreased appetite (treatment-emergent AE) (qd 2.2: 250 mg qd 5/2 (n=3)): 1 (33.3) n (%) | Decreased appetite (treatment-related AE) (qd 2.2: 250 mg qd 5/2 (n=3)): 0 n (%) | Dehydration (treatment-emergent AE) (qd 2.2: 250 mg qd 5/2 (n=3)): 2 (66.7) n (%) | Dehydration (treatment-related AE) (qd 2.2: 250 mg qd 5/2 (n=3)): 1 (33.3) n (%) | Diarrhea (treatment-emergent AE) (qd 2.2: 250 mg qd 5/2 (n=3)): 2 (66.7) n (%) | Diarrhea (treatment-related AE) (qd 2.2: 250 mg qd 5/2 (n=3)): 2 (66.7) n (%) | Dizziness (treatment-emergent AE) (qd 2.2: 250 mg qd 5/2 (n=3)): 0 n (%) | Dyspepsia (treatment-emergent AE) (qd 2.2: 250 mg qd 5/2 (n=3)): 0 n (%) | Dyspepsia (treatment-related AE) (qd 2.2: 250 mg qd 5/2 (n=3)): 0 n (%) | Dyspnea (treatment-emergent AE) (qd 2.2: 250 mg qd 5/2 (n=3)): 0 n (%) | Edema peripheral (treatment-emergent AE) (qd 2.2: 250 mg qd 5/2 (n=3)): 0 n (%) | Fall (treatment-emergent AE) (qd 2.2: 250 mg qd 5/2 (n=3)): 1 (33.3) n (%) | Fatigue (treatment-emergent AE) (qd 2.2: 250 mg qd 5/2 (n=3)): 2 (66.7) n (%) | Fatigue (treatment-related AE) (qd 2.2: 250 mg qd 5/2 (n=3)): 2 (66.7) n (%) | Headache (treatment-emergent AE) (qd 2.2: 250 mg qd 5/2 (n=3)): 0 n (%) | Hypokalemia (treatment-emergent AE) (qd 2.2: 250 mg qd 5/2 (n=3)): 1 (33.3) n (%) | Insomnia (treatment-emergent AE) (qd 2.2: 250 mg qd 5/2 (n=3)): 0 n (%) | Muscle spasms (treatment-emergent AE) (qd 2.2: 250 mg qd 5/2 (n=3)): 1 (33.3) n (%) | Myalgia (treatment-emergent AE) (qd 2.2: 250 mg qd 5/2 (n=3)): 0 n (%) | Myalgia (treatment-related AE) (qd 2.2: 250 mg qd 5/2 (n=3)): 0 n (%) | Nausea (treatment-emergent AE) (qd 2.2: 250 mg qd 5/2 (n=3)): 2 (66.7) n (%) | Nausea (treatment-related AE) (qd 2.2: 250 mg qd 5/2 (n=3)): 2 (66.7) n (%) | Neutropenia (treatment-emergent AE) (qd 2.2: 250 mg qd 5/2 (n=3)): 0 n (%) | Neutropenia (treatment-related AE) (qd 2.2: 250 mg qd 5/2 (n=3)): 0 n (%) | Pneumonia (treatment-emergent AE) (qd 2.2: 250 mg qd 5/2 (n=3)): 1 (33.3) n (%) | Pyrexia (treatment-emergent AE) (qd 2.2: 250 mg qd 5/2 (n=3)): 2 (66.7) n (%) | Rash (treatment-emergent AE) (qd 2.2: 250 mg qd 5/2 (n=3)): 1 (33.3) n (%) | Thrombocytopenia (treatment-emergent AE) (qd 2.2: 250 mg qd 5/2 (n=3)): 1 (33.3) n (%) | Thrombocytopenia (treatment-related AE) (qd 2.2: 250 mg qd 5/2 (n=3)): 1 (33.3) n (%) | Urinary tract infection (treatment-emergent AE) (qd 2.2: 250 mg qd 5/2 (n=3)): 1 (33.3) n (%) | Vomiting (treatment-emergent AE) (qd 2.2: 250 mg qd 5/2 (n=3)): 2 (66.7) n (%) | Vomiting (treatment-related AE) (qd 2.2: 250 mg qd 5/2 (n=3)): 2 (66.7) n (%) | Abdominal pain (treatment-emergent AE) [1]: 2 (20.0) n (%) | Abdominal pain (treatment-related AE) [1]: 0 n (%) | Alanine aminotransferase increased (treatment-emergent AE) [1]: 1 (10.0) n (%) | Anemia (treatment-emergent AE) [1]: 2 (20.0) n (%) | Anemia (treatment-related AE) [1]: 1 (10.0) n (%) | Any AE (treatment-emergent) [1]: 8 (80.0) n (%) | Any grade ≥ 3 AE [1]: 5 (50.0) n (%) | Any treatment-related AE [1]: 8 (80.0) n (%) | Any treatment-related grade ≥ 3 AE [1]: 4 (40.0) n (%) | Asthenia (treatment-emergent AE) [1]: 0 n (%) | Asthenia (treatment-related AE) [1]: 0 n (%) | Back pain (treatment-emergent AE) [1]: 2 (20.0) n (%) | Constipation (treatment-emergent AE) [1]: 2 (20.0) n (%) | Constipation (treatment-related AE) [1]: 2 (20.0) n (%) | Cough (treatment-emergent AE) [1]: 0 n (%) | Decreased appetite (treatment-emergent AE) [1]: 3 (30.0) n (%) | Decreased appetite (treatment-related AE) [1]: 2 (20.0) n (%) | Dehydration (treatment-emergent AE) [1]: 5 (50.0) n (%) | Dehydration (treatment-related AE) [1]: 2 (20.0) n (%) | Diarrhea (treatment-emergent AE) [1]: 7 (70.0) n (%) | Diarrhea (treatment-related AE) [1]: 7 (70.0) n (%) | Dizziness (treatment-emergent AE) [1]: 2 (20.0) n (%) | Dyspepsia (treatment-emergent AE) [1]: 0 n (%) | Dyspepsia (treatment-related AE) [1]: 0 n (%) | Dyspnea (treatment-emergent AE) [1]: 0 n (%) | Edema peripheral (treatment-emergent AE) [1]: 2 (20.0) n (%) | Fall (treatment-emergent AE) [1]: 2 (20.0) n (%) | Fatigue (treatment-emergent AE) [1]: 3 (30.0) n (%) | Fatigue (treatment-related AE) [1]: 2 (20.0) n (%) | Headache (treatment-emergent AE) [1]: 0 n (%) | Hypokalemia (treatment-emergent AE) [1]: 3 (30.0) n (%) | Insomnia (treatment-emergent AE) [1]: 3 (30.0) n (%) | Muscle spasms (treatment-emergent AE) [1]: 1 (10.0) n (%) | Myalgia (treatment-emergent AE) [1]: 2 (20.0) n (%) | Myalgia (treatment-related AE) [1]: 2 (20.0) n (%) | Nausea (treatment-emergent AE) [1]: 3 (30.0) n (%) | Nausea (treatment-related AE) [1]: 2 (20.0) n (%) | Neutropenia (treatment-emergent AE) [1]: 1 (10.0) n (%) | Neutropenia (treatment-related AE) [1]: 1 (10.0) n (%) | Pneumonia (treatment-emergent AE) [1]: 1 (10.0) n (%) | Pyrexia (treatment-emergent AE) [1]: 0 n (%) | Rash (treatment-emergent AE) [1]: 2 (20.0) n (%) | Thrombocytopenia (treatment-emergent AE) [1]: 3 (30.0) n (%) | Thrombocytopenia (treatment-related AE) [1]: 3 (30.0) n (%) | Urinary tract infection (treatment-emergent AE) [1]: 1 (10.0) n (%) | Vomiting (treatment-emergent AE) [1]: 2 (20.0) n (%) | Vomiting (treatment-related AE) [1]: 1 (10.0) n (%) | Abdominal pain (treatment-emergent AE) (qd 3.1: 300 mg qd 5/9 (n=4)): 1 (25.0) n (%) | Abdominal pain (treatment-related AE) (qd 3.1: 300 mg qd 5/9 (n=4)): 1 (25.0) n (%) | Alanine aminotransferase increased (treatment-emergent AE) (qd 3.1: 300 mg qd 5/9 (n=4)): 0 n (%) | Anemia (treatment-emergent AE) (qd 3.1: 300 mg qd 5/9 (n=4)): 1 (25.0) n (%) | Anemia (treatment-related AE) (qd 3.1: 300 mg qd 5/9 (n=4)): 0 n (%) | Any AE (treatment-emergent) (qd 3.1: 300 mg qd 5/9 (n=4)): 4 (100) n (%) | Any grade ≥ 3 AE (qd 3.1: 300 mg qd 5/9 (n=4)): 3 (75.0) n (%) | Any treatment-related AE (qd 3.1: 300 mg qd 5/9 (n=4)): 2 (50.0) n (%) | Any treatment-related grade ≥ 3 AE (qd 3.1: 300 mg qd 5/9 (n=4)): 1 (25.0) n (%) | Asthenia (treatment-emergent AE) (qd 3.1: 300 mg qd 5/9 (n=4)): 0 n (%) | Asthenia (treatment-related AE) (qd 3.1: 300 mg qd 5/9 (n=4)): 0 n (%) | Back pain (treatment-emergent AE) (qd 3.1: 300 mg qd 5/9 (n=4)): 1 (25.0) n (%) | Constipation (treatment-emergent AE) (qd 3.1: 300 mg qd 5/9 (n=4)): 1 (25.0) n (%) | Constipation (treatment-related AE) (qd 3.1: 300 mg qd 5/9 (n=4)): 0 n (%) | Cough (treatment-emergent AE) (qd 3.1: 300 mg qd 5/9 (n=4)): 1 (25.0) n (%) | Decreased appetite (treatment-emergent AE) (qd 3.1: 300 mg qd 5/9 (n=4)): 0 n (%) | Decreased appetite (treatment-related AE) (qd 3.1: 300 mg qd 5/9 (n=4)): 0 n (%)
